Measured values published in the NIST ThermoML archive (doi:10.1021/je020189p).
“And” between values parts separate entries of the source, which are not always exact repeats. Identical values can stand only once. Numbers after ± are expanded uncertainties.

[Br-].[Br-].[Br-].[Tb+3] [terbium tribromide]
Crystal
Details	vapor or sublimation pressure
904 K	4.79e-05 ± 1.4e-05 kPa
908 K	4.68e-05 ± 1.4e-05 kPa
912 K	3.8e-05 ± 1.2e-05 kPa
915 K	7.59e-05 ± 2.3e-05 kPa and 4.79e-05 ± 1.6e-05 kPa and 4.17e-05 ± 1.4e-05 kPa
917 K	8.13e-05 ± 2.5e-05 kPa
920 K	8.51e-05 ± 2.6e-05 kPa and 8.32e-05 ± 2.5e-05 kPa and 4.79e-05 ± 1.5e-05 kPa
921 K	7.59e-05 ± 2.3e-05 kPa
922 K	8.32e-05 ± 2.5e-05 kPa and 6.17e-05 ± 1.9e-05 kPa
924 K	0.000105 ± 3.2e-05 kPa
925 K	7.24e-05 ± 2.2e-05 kPa
928 K	9.55e-05 ± 3e-05 kPa
930 K	0.000132 ± 4e-05 kPa and 8.51e-05 ± 2.6e-05 kPa
931 K	0.00012 ± 3.6e-05 kPa
933 K	9.55e-05 ± 2.9e-05 kPa
934 K	8.51e-05 ± 2.5e-05 kPa and 0.00012 ± 3.6e-05 kPa
935 K	0.000151 ± 4.5e-05 kPa
937 K	0.000123 ± 4.2e-05 kPa and 0.000138 ± 4.6e-05 kPa
939 K	0.000151 ± 4.5e-05 kPa
940 K	0.000182 ± 5.5e-05 kPa [middle of 4 runs]
941 K	0.000115 ± 3.6e-05 kPa
943 K	0.000141 ± 4.2e-05 kPa
944 K	0.000209 ± 6.5e-05 kPa and 0.000186 ± 5.8e-05 kPa
945 K	0.000186 ± 5.9e-05 kPa
947 K	0.000214 ± 6.4e-05 kPa
948 K	0.00024 ± 7.3e-05 kPa and 0.000141 ± 4.5e-05 kPa
950 K	0.000182 ± 5.6e-05 kPa and 0.000166 ± 5.1e-05 kPa
954 K	0.000295 ± 9.1e-05 kPa
955 K	0.000191 ± 6e-05 kPa and 0.000269 ± 8.3e-05 kPa
956 K	0.000229 ± 7.1e-05 kPa
957 K	0.000331 ± 0.0001 kPa and 0.000229 ± 7e-05 kPa and 0.000275 ± 8.3e-05 kPa
958 K	0.000331 ± 0.0001 kPa and 0.000288 ± 8.7e-05 kPa
960 K	0.000363 ± 0.00011 kPa and 0.000316 ± 9.5e-05 kPa
962 K	0.000347 ± 0.0001 kPa [middle of 4 runs]
964 K	0.000288 ± 8.7e-05 kPa and 0.000389 ± 0.00012 kPa
968 K	0.000295 ± 8.9e-05 kPa
969 K	0.000363 ± 0.00011 kPa
970 K	0.000501 ± 0.00015 kPa
971 K	0.000355 ± 0.00012 kPa
973 K	0.000537 ± 0.00016 kPa and 0.000501 ± 0.00015 kPa
974 K	0.000575 ± 0.00017 kPa and 0.000355 ± 0.00011 kPa
975 K	0.000427 ± 0.00013 kPa
976 K	0.000501 ± 0.00015 kPa
977 K	0.000427 ± 0.00013 kPa and 0.000575 ± 0.00017 kPa
978 K	0.000617 ± 0.00019 kPa
980 K	0.000427 ± 0.00013 kPa
981 K	0.000661 ± 0.0002 kPa
983 K	0.000537 ± 0.00017 kPa and 0.000741 ± 0.00023 kPa
988 K	0.000871 ± 0.00027 kPa
989 K	0.000832 ± 0.00026 kPa
990 K	0.000912 ± 0.00028 kPa
991 K	0.001 ± 0.0003 kPa
992 K	0.00107 ± 0.00032 kPa
993 K	0.00107 ± 0.00032 kPa and 0.001 ± 0.0003 kPa
999 K	0.00115 ± 0.00035 kPa
1000 K	0.00126 ± 0.00038 kPa
1002 K	0.00132 ± 0.0004 kPa
1003 K	0.00138 ± 0.00042 kPa
1004 K	0.00148 ± 0.00045 kPa and 0.00158 ± 0.00048 kPa and 0.00129 ± 0.00039 kPa
1007 K	0.00155 ± 0.00047 kPa
1012 K	0.00174 ± 0.00052 kPa
1014 K	0.00166 ± 0.0005 kPa and 0.00209 ± 0.00063 kPa
1015 K	0.002 ± 0.00061 kPa and 0.00224 ± 0.00068 kPa
1019 K	0.00257 ± 0.00077 kPa
1020 K	0.00224 ± 0.00067 kPa
1024 K	0.0024 ± 0.00072 kPa
1025 K	0.00263 ± 0.00079 kPa and 0.00295 ± 0.00089 kPa
1030 K	0.00295 ± 0.00089 kPa
1032 K	0.00295 ± 0.00089 kPa
1035 K	0.00331 ± 0.001 kPa and 0.00417 ± 0.0013 kPa
1039 K	0.00398 ± 0.0012 kPa
1042 K	0.00537 ± 0.0016 kPa
1045 K	0.00468 ± 0.0014 kPa
1047 K	0.00575 ± 0.0017 kPa
1049 K	0.00575 ± 0.0017 kPa
1051 K	0.00676 ± 0.002 kPa
1054 K	0.00646 ± 0.0019 kPa
1058 K	0.00708 ± 0.0021 kPa
1059 K	0.00851 ± 0.0026 kPa and 0.00832 ± 0.0025 kPa
1064 K	0.00912 ± 0.0027 kPa
1067 K	0.01 ± 0.003 kPa
1068 K	0.011 ± 0.0033 kPa and 0.0115 ± 0.0035 kPa
1071 K	0.0112 ± 0.0034 kPa
1076 K	0.0141 ± 0.0043 kPa and 0.0129 ± 0.0039 kPa
1078 K	0.0141 ± 0.0043 kPa
1085 K	0.0182 ± 0.0055 kPa
1088 K	0.0174 ± 0.0052 kPa and 0.0158 ± 0.0048 kPa
1099 K	0.0229 ± 0.0069 kPa
1108 K	0.0288 ± 0.0087 kPa

[Cl-].[Cl-].[Cl-].[Gd+3] [gadolinium(III) chloride]
Liquid
Details	vapor or sublimation pressure
930 K	3.31e-05 ± 1e-05 kPa
952 K	6.76e-05 ± 2.1e-05 kPa
957 K	8.32e-05 ± 2.5e-05 kPa
958 K	6.31e-05 ± 1.9e-05 kPa
965 K	7.76e-05 ± 2.4e-05 kPa
970 K	0.000129 ± 3.9e-05 kPa
973 K	9.77e-05 ± 2.9e-05 kPa
983 K	0.000141 ± 4.3e-05 kPa and 0.000178 ± 5.4e-05 kPa
994 K	0.000195 ± 5.9e-05 kPa
996 K	0.000224 ± 6.8e-05 kPa
1002 K	0.000324 ± 9.7e-05 kPa
1004 K	0.000251 ± 7.6e-05 kPa
1011 K	0.000331 ± 0.0001 kPa
1015 K	0.000355 ± 0.00011 kPa
1022 K	0.000562 ± 0.00017 kPa
1023 K	0.000479 ± 0.00015 kPa
1024 K	0.00049 ± 0.00015 kPa
1042 K	0.000794 ± 0.00024 kPa
1044 K	0.001 ± 0.0003 kPa
1046 K	0.001 ± 0.0003 kPa
1052 K	0.00102 ± 0.00031 kPa
1054 K	0.00141 ± 0.00042 kPa
1061 K	0.00135 ± 0.00041 kPa
1062 K	0.00138 ± 0.00041 kPa
1071 K	0.00174 ± 0.00052 kPa
1076 K	0.00219 ± 0.00066 kPa
1082 K	0.00234 ± 0.0007 kPa
1086 K	0.00269 ± 0.00081 kPa
1090 K	0.00275 ± 0.00083 kPa
1091 K	0.00339 ± 0.001 kPa
1093 K	0.00302 ± 0.00091 kPa
1099 K	0.00339 ± 0.001 kPa
1103 K	0.00437 ± 0.0013 kPa
1107 K	0.00417 ± 0.0013 kPa
1113 K	0.00575 ± 0.0017 kPa
1116 K	0.00513 ± 0.0015 kPa
1117 K	0.00603 ± 0.0018 kPa
1120 K	0.00589 ± 0.0018 kPa and 0.00603 ± 0.0018 kPa
1126 K	0.00759 ± 0.0023 kPa and 0.00661 ± 0.002 kPa
1134 K	0.00871 ± 0.0026 kPa
1135 K	0.00794 ± 0.0024 kPa
1138 K	0.00977 ± 0.0029 kPa
1144 K	0.01 ± 0.003 kPa
1147 K	0.0129 ± 0.0039 kPa
1151 K	0.0126 ± 0.0038 kPa
1154 K	0.0132 ± 0.004 kPa
1156 K	0.0158 ± 0.0048 kPa
1165 K	0.0182 ± 0.0055 kPa
1170 K	0.0219 ± 0.0066 kPa
1177 K	0.024 ± 0.0072 kPa
1187 K	0.0324 ± 0.0097 kPa
1190 K	0.0316 ± 0.0095 kPa
1203 K	0.0407 ± 0.012 kPa
1213 K	0.0501 ± 0.015 kPa
